In patent US20110004021A1, “THIAZOLECARBOXANILIDES” (priority 2005, published 2011):

Test system: Alternaria solani
Assay: Activity against early blight of tomato caused by Alternaria solani
Format: in vivo
Conditions: tomato cultivar Goldene Königin, protective spray 4 ppm, infected next day, assessed after 5 days; untreated plants 90% infected
Procedure: The active compounds were prepared as a stock solution comprising 25 mg of active compound which was filled up to 10 ml with a mixture of acetone and/or dimethyl sulfoxide and the emulsifier Uniperol® EL (wetting agent having an emulsifying and dispersing action based on ethoxylated alkylphenols) in a solvent/emulsifier volume ratio of 99 to 1. The solution was then made up to 100 ml with water. This stock solution was diluted with the solvent/emulsifier/water mixture described to the active compound concentration given below.
Leaves of potted plants of the cultivar “Goldene Königin” were sprayed to runoff point with an aqueous suspension having the concentration of active compounds stated below. The next day, the leaves were infected with an aqueous spore suspension of Alternaria solani in 2% biomalt solution having a density of 0.12×10^6 spores/ml. The plants were then placed in a water-vapor-saturated chamber at temperatures of between 20 and 22° C. After 5 days, the infection on the untreated, but infected control plants had developed to such an extent that the infection could be determined visually in %.

SMILES | infection
Cc1nc(C(F)(F)F)c(C(=O)Nc2ccccc2-c2ccc(F)c(F)c2)s1 | 20%
Cc1nc(C(F)(F)F)c(C(=O)Nc2ccccc2-c2cc(F)c(F)c(F)c2)s1 [I.1, N-(3′,4′,5′-Trifluorobiphenyl-2-yl)-2-methyl-4-trifluoromethylthiazole-5-carboxamide] | at most 7%
